These results are taken from US20080268445A1, “Ant2 Conditional Knockout Mouse and Methods” (Emory University, priority 2002, published 2008).

Entries after “also recorded” stand apart in the source; their conditions may differ. *1 amine or outer side, *2 acyl side, *3 side chain or, on linkers, in order; H or OH if unused. Where a SMILES comes first, the peptide text is derived from it. Bridges are numbered along the chain shown (N, C = ends). Roman numbers before positions name the chains, in order. [ ]: non-standard residue; d: D form. Actinocin(9to1) = Cc1c2oc3c(C)ccc(C(=O)[*:1])c3nc-2c(C(=O)[*:2])c(N)c1=O; NMeV = CN[C@H](C(=O)O)C(C)C; Sar = CNCC(=O)O

In one experiment the test system is mouse hepatocytes. In words: Induction of apoptosis in primary hepatocytes, apoptotic nuclei by Hoechst 33258 staining. Type of experiment: cell-based. To be noted: ANT-deficient and ANT-control hepatocytes; agent alone; 12 h. As to the method: Primary hepatocytes from ANT-deficient and ANT-control mice were cultured on collagen-coated cover glasses and treated with Fas ligand and Actinomycin D. After 12 h, cells were stained with Hoechst 33258 and images were acquired with a Zeiss Axio-10 fluorescence microscope. Cells with chromatin condensation and nuclei fragmentation were counted as apoptotic.
Hepatocytes were isolated from 12 to 15 month old anesthetized mice, perfused in situ with collagenase-dispase medium (Invitrogen, Carlsbad, Calif.). The hepatocytes were gently released, filtered and cultured on collagen coated cover glasses or plates in Waymouth's MB-752/1 medium containing 27 mM NaHCO3, 2 mM L-glutamine, 10% fetal calf serum, 0.5 μg/ml insulin, 0.5 μg/ml transferrin, 0.5 ng/ml sodium selenate and 100 nM dexamethasone (49). […]
Fas ligand-TNFα+Actinomycin D induced apoptosis was monitored by detection of apoptotic nuclei by staining with 10 μg/ml of Hoechst 33258 (Molecular Probes, Eugene, Oreg.) (9). Br-A23187-induced cell death after 1 h treatment was monitored by measuring the percentage of lactate dehydrogenase (LDH) released into the culture medium as a percentage of the activity in a Triton X-100 total cell lysate.

Experiment [1] deals with mtPTP. Description: Ca++-activation of the mtPTP in liver mitochondria, irreversible release of TPP+. Type of experiment: biochemical, mouse.
Protocol: The mitochondria were energized with succinate in the presence of TPP^+. TPP^+ is accumulated into the mitochondrial matrix in proportion to ΔP, and its concentration in the suspension medium is monitored using a TPP^+ sensitive electrode. Aliquots of Ca^++ are then added to the reaction solution, with each addition causing a transient release of TPP^+ as the Ca^++ is taken into the mitochondria at the expense of ΔP. […] At this juncture, ΔP collapses and the mitochondrial TPP^+ is irreversibly released into the suspension medium. The amount of Ca^++ required to cause irreversible release of TPP^+ provides a quantitative measurement of mtPTP sensitivity.
To determine if the ANTs provide a regulatory function for the mtPTP, ANT-deficient and control liver mitochondria were loaded with TPP^+ and then Ca^++ was added in the presence or absence of various mtPTP effectors until the TPP^+ was irreversibly released. The relative levels of Ca^++ required for permeability transition were then compared.
The calcium sensitivity of the mtPTP was calculated from 10 nmol CaCl2 additions to a reaction vessel containing 1 mg of mitochondrial protein in 1.0 ml of 250 mM sucrose, 10 mM MOPS, 2 mM K2HPO4, pH 7.2, and 5 mM succinate. Irreversible release of TPP^+ from the mitochondria was indicative of mtPTP activation.
For the next experiment, the system named is liver mitochondria. Description: ADP stimulation of respiration in liver mitochondria (oxygen consumption, succinate). Type of experiment: biochemical, mouse. To be noted: liver mitochondria from Ant1−/−, Ant2fl/Y, Alb-Cre (ANT-deficient) animals. As for the experimental part: FIGS. 6A and 6B show ANT1 and ANT2 expression and respiration of control and ANT-deficient liver mitochondria. Liver mitochondria were isolated from Ant1^−/−, Ant2^fl/Y (ANT-control) or Ant1^−/−, Ant2^fl/Y, Alb-cre (ANT-deficient) mice. FIG. 6A: Western blot analysis using antibodies against ANT1 (left) and ANT2 (right). Heart mitochondria were used as a positive control for the presence of ANT1. ANT1 and ANT2, 30 kDa. FIG. 6B: Oxygen consumption was measured using succinate as substrate in ANT-control (left) and ANT-deficient (right) mitochondria. MITOS, addition of 600 μg of mitochondrial protein. ADP, 125 nmol ADP; FCCP (uncoupler), 75 nM.
Respiration and oxidative phosphorylation enzyme activities were measured polarographically and spectrophotometrically (42). The membrane potential was calculated from the mitochondrial uptake of TPP^+ using a TPP^+ sensitive electrode (44-47). The mtPTP was examined in liver 10-week-old Ant1^−/− or +/+, Ant2^fl/Y, Alb-Cre +/− animals.

In experiment [2] the test system is mtPTP. The conditions noted are these: ANT-deficient and ANT-control mitochondria; 1 μM FCCP in the presence of Ca++.
Protocol: To determine if the mtPTP could still exist in the absence of ANT, we isolated mitochondria from livers of Ant1^−/−, Ant2^fl/Y, Alb-Cre (ANT-deficient) and Ant1^−/−, Ant2^fl/Y (ANT-control) mice. […] The opening of the pore was monitored by following mitochondrial swelling through decreased light scattering.
Mitochondria (1 mg protein) were incubated in 1.5 ml of the above reaction medium with 16.5 nmol CaCl2. After two minutes 0.1 uM ruthenium red was added followed by FCCP.
Where [3] appears, read: ANT-control (Ant1−/−, Ant2fl/Y) liver mitochondria.
The mark [4] stands for this setting: ANT-deficient (Ant1−/−, Ant2fl/Y, Alb-Cre) liver mitochondria.

As for `Cc1c2oc3c(C)ccc(C(=O)N[C@@H]4C(=O)N[C@H](C(C)C)C(=O)N5CCC[C@H]5C(=O)N(C)CC(=O)N(C)[C@@H](C(C)C)C(=O)O[C@@H]4C)c3nc-2c(C(=O)N[C@@H]2C(=O)N[C@H](C(C)C)C(=O)N3CCC[C@H]3C(=O)N(C)CC(=O)N(C)[C@@H](C(C)C)C(=O)O[C@@H]2C)c(N)c1=O` [Actinomycin D] (I: T[dV]P[Sar][NMeV] / II: T[dV]P[Sar][NMeV]; ester I:1-I:C, II:1-II:C; linker I:N-II:N via Actinocin(9to1)), in the experiment with mouse hepatocytes, the induction of apoptosis entry is “did not induce apoptosis”.

Regarding TNFα, the induction of apoptosis entry with mouse hepatocytes is reported as “did not induce apoptosis”.

As for `CN(C)C(=O)/N=N/C(=O)N(C)C` [DIA, diamide], the “effect on Ca++ activation of the mtPTP (Ca++ required for permeability transition)” value (“effect on Ca++ activation of the mtPTP” for short) with mtPTP [1] (setting [3]) and with mtPTP [1] (setting [4]) was “activated the mtPTP” in each case.

Consider `Nc1ncnc2c1ncn2[C@@H]1O[C@H](COP(=O)(O)OP(=O)(O)O)[C@@H](O)[C@H]1O` [ADP, adenosine diphosphate], for which the “stimulation of mitochondrial respiration” value with liver mitochondria is “could not be stimulated”. For the same compound, the “effect on Ca++ activation of the mtPTP” value with mtPTP [1] (setting [3]) is “strongly inhibited”; in the experiment with mtPTP [1] (setting [4]), “no effect; also recorded: without effect”.

Turning to `C=C1[C@@H]2CC[C@H]3[C@]4(C)C[C@H](O[C@@H]5O[C@H](CO)[C@@H](OS(=O)(=O)O)[C@H](OS(=O)(=O)O)[C@H]5OC(=O)CC(C)C)C[C@@H](C(=O)O)[C@H]4CC[C@]3(C2)[C@H]1O` [ATR, atractyloside], the “effect on Ca++ activation of the mtPTP” value is “activated the mtPTP” in the experiment on mtPTP [1] (setting [3]) and “no effect” in the experiment with mtPTP [1] (setting [4]).

With `CC(C)(C)OO` [t-H2O2, Tert-butyl hydroperoxide], the “effect on Ca++ activation of the mtPTP” value in the experiment on mtPTP [1] (setting [3]) and in the experiment on mtPTP [1] (setting [4]) was “activated the mtPTP” throughout.

As to `N#CC(C#N)=NNc1ccc(OC(F)(F)F)cc1` [FCCP, carbonyl cyanide p-(trifluoromethoxy)phenylhydrazone], the “FCCP-induced mtPTP activation (mitochondrial swelling)” value in the experiment on mtPTP [2] is “responded equally well”.
